Test results published in US6007814A, “Therapeutic uses of the hypervariable region of monoclonal antibody M195 and constructs thereof” (priority 1992, dated 1999).

Key:
Type in all cases: cell-based, human
HL-60 cell line = assay: HL-60 clonogenic assay (colony-forming inhibition) after ex vivo purging treatment; conditions: 4HC 100 μM, VP-16 5 μg/ml, 1 hr incubation at 37° C., colonies scored after 7 days, mean + SD
Procedure: Human Cell Line. HL-60 is a human acute promyelocytic leukemia cell line growing with a doubling time of 24 hours and a plating efficiency of 7-12% (148). The cell line was maintained in exponential growth in RPMI-1640 supplemented with 10% fetal calf serum (FCS-Hyclone, Logan, U.S.A.) 1% L-Glutamine at 37° C. in a humidified atmosphere of 5% CO2 air. Cell viability was always higher than 95% and cells were free of mycoplasma contamination.
(§1) Incubation Procedure and Culture Techniques. Tumor cells and normal BM cells were adjusted to a concentration of 2×10^6 /ml and 20×10^6 /ml, respectively. […] After completion of 1 hr incubation at 37° C., the cells were put on ice for five minutes and washed twice with RPMI supplemented with FCS. To simulate "ex vivo" BM purging conditions, the HL-60 cells were also incubated together with irradiated (3,000 cGy) BM cells (1:10 ratio). […] Cells were incubated at 37° C. in humidified atmosphere of 5% of CO2 in air and scored for colonies (>50 cells) after 7 days of incubation using an inverted microscope.
(§2) DATA ANALYSIS. All experiments were performed three or more times and the mean+standard deviation (SD) values of each experiment were calculated. Colony counts after drug treatment were expressed as a percent of the untreated control cells.

CFU-GM = assay: Clonogenic assay of normal bone marrow progenitors, CFU-GM; conditions: normal BM; 4HC 100 μM, VP-16 5 μg/ml; 1 hr at 37° C.; scored at day 14; mean ± SD vs control cultures
Procedure: (§3) Bone Marrow Cells. Bone marrow was aspirated from the posterior iliac crest of healthy volunteers after obtaining written informed consent and BM mononuclear cells were collected after Ficoll-Hypaque gradient (1.077 g/cm3).
as §1
(§4) After treatment, normal bone marrow cells were assayed for colonies derived from CFU-GM, BFU-E and CFU-GEM as already described (150). […] Quadruplicate cultures were incubated as described above and the colonies were scored after 14 days of incubation. […] Colonies (>20 cells) were scored after 10 days of incubation.
as §2

BFU-E = assay: Clonogenic assay of normal bone marrow progenitors, BFU-E; conditions: normal BM; 4HC 100 μM, VP-16 5 μg/ml; 1 hr at 37° C.; scored at day 14; mean ± SD vs control cultures
Procedure: as §3, §1, §4, §2

O=P1(N(CCCl)CCCl)NC(OO)CCO1 (stereo not drawn) [4HC]
colony-forming inhibition (HL-60 cell line): 99.5+0.8%
COLONY FORMING INHIBITION CFU-GM (CFU-GM): 84 ± 10%
COLONY FORMING INHIBITION BFU-E (BFU-E): 80.3 ± 12.5%
